Measurements published in EP0377642B1, “HERBICIDES FOR WEED CONTROL IN RICE” (E.I. DU PONT DE NEMOURS AND COMPANY, priority 1987, dated 1989).

Legend:
Type in all cases: in vivo
[1] = test system: Ludwigia linifolia; experiment: Herbicidal efficacy with Bensulfuron methyl and 2,4-D in Thailand (Table 18); details: 13 days after treatment
How it was run: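 Hand-sprayer application, field; rice crop transplanted or direct seeded; test herbicide alone or in mixtures; locations across Southeast Asia and US.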

[2] = test system: Cyperus species; experiment: Field test, herbicidal efficacy in rice, Thailand, applied 36 days after seeding (Table 1); details: 100=complete control
Excerpt: (§1) Methyl 2-[[[[(4-methoxy-6-methyl-1,3,5-triazin-2-yl)amino]carbonyl]amino]sulfonyl]benzoate (Compound 1) and mixtures thereof with other compounds were applied as a spray (using a hand sprayer) to rice (either transplanted or direct seeded) in several rice growing areas in Southeast Asia and in the U.S. Tables 1-28 contain the results of these tests and clearly exemplify the utility of this invention. The details of each application are included in the appropriate table. [drawing 2]

[3] = test system: Sphenoclea zeylanica; experiment: as above; details: 100=complete control
Excerpt: as §1

[4] = test system: rice; experiment: Effects on rice growth in Thailand, phytotoxicity (Table 2); details: scale 0-10
Excerpt: as §1

[5] = test system: rice; experiment: Effects on rice growth in Thailand, phytotoxicity (Table 4); details: scale 0-10
Excerpt: as §1

[6] = test system: rice; experiment: Herbicidal efficacy in relation to application timing in Indonesia (Table 5)
Excerpt: as §1

[7] = test system: transplanted rice; experiment: Crop tolerance of transplanted rice (Table 7); details: rating 0-10
Excerpt: as §1

[8] = test system: Cyperus difformis; experiment: Herbicidal efficacy with 2,4-D in Thailand (Table 17); details: 4 GAI/HA; 14 days after treatment
Excerpt: as §1

[9] = test system: Ludwigia linifolia; experiment: as above; details: 4 GAI/HA; 14 days after treatment
Excerpt: as §1

[10] = test system: MC; experiment: as above; details: 4 GAI/HA; 14 days after treatment
Excerpt: as §1

[11] = test system: Sphenoclea zeylanica; experiment: as above; details: 4 GAI/HA; 14 days after treatment
Excerpt: as §1

[12] = test system: rice; experiment: as above; details: 4 GAI/HA; 14 days after treatment
Excerpt: as §1

[13] = test system: rice; experiment: Effects in combination with Thiobencarb and Bensulfuron Methyl on rice growth (Table 22); details: rate 8 g ai/ha; var. Koshihikari, applied 7 days after transplanting, rated 21 days after application
Excerpt: as §1

[14] = test system: weeds; experiment: Greenhouse test of Compound 1 and Compound 2, herbicidal efficacy (Table 26); details: rated 24 days after treatment; for % CONTROL OR INJURY AT: Alisma triviale; for % CONTROL OR INJURY AP: Alternanthera philoxeroides; for % CONTROL OR INJURY CD: Cyperus difformis; for % CONTROL OR INJURY SR: Sagittaria rigida
Excerpt: as §1

## COC(=O)c1ccccc1CS(=O)(=O)NC(=O)Nc1nc(OC)cc(OC)n1 [Bensulfuron methyl, methyl 2-[[[[[(4,6-dimethoxy-2-pyrimidinyl)amino]carbonyl]amino]sulfonyl]methyl]benzoate]
[1]; 10 GAI/HA
  % CONTROL OR INJURY LL: 100%
[1]; 15 GAI/HA
  % CONTROL OR INJURY LL: 100%
[1]; 20 GAI/HA
  % CONTROL OR INJURY LL: 100%

## COC(=O)c1ccccc1S(=O)(=O)NC(=O)Nc1nc(C)nc(OC)n1 [Compound 1, Methyl 2-[[[[(4-methoxy-6-methyl-1,3,5-triazin-2-yl)amino]carbonyl]amino]sulfonyl]benzoate]
[2]; Trial 1, 2 GAI/HA
  Herbicidal efficacy CY 2WAA: 33
[2]; Trial 1, 3 GAI/HA
  Herbicidal efficacy CY 2WAA: 67
[2]; Trial 1, 4 GAI/HA
  Herbicidal efficacy CY 2WAA: 67
[2]; Trial 1, 6 GAI/HA
  Herbicidal efficacy CY 2WAA: 67
[2]; Trial 2, 2 GAI/HA
  Herbicidal efficacy CY 2WAA: 0
[2]; Trial 2, 3 GAI/HA
  Herbicidal efficacy CY 2WAA: 67
[2]; Trial 2, 4 GAI/HA
  Herbicidal efficacy CY 2WAA: 33
[2]; Trial 2, 6 GAI/HA
  Herbicidal efficacy CY 2WAA: 67
[3]; Trial 1, 2 GAI/HA
  Herbicidal efficacy SZ 2WAA: 100
  Herbicidal efficacy SZ 4WAA: 100
  Herbicidal efficacy SZ 6WAA: 100
[3]; Trial 1, 3 GAI/HA
  Herbicidal efficacy SZ 2WAA: 99
  Herbicidal efficacy SZ 4WAA: 100
  Herbicidal efficacy SZ 6WAA: 100
[3]; Trial 1, 4 GAI/HA
  Herbicidal efficacy SZ 2WAA: 100
  Herbicidal efficacy SZ 4WAA: 100
  Herbicidal efficacy SZ 6WAA: 100
[3]; Trial 1, 6 GAI/HA
  Herbicidal efficacy SZ 2WAA: 100
  Herbicidal efficacy SZ 4WAA: 100
  Herbicidal efficacy SZ 6WAA: 100
[3]; Trial 2, 2 GAI/HA
  Herbicidal efficacy SZ 2WAA: 97
  Herbicidal efficacy SZ 4WAA: 99
  Herbicidal efficacy SZ 6WAA: 99
[3]; Trial 2, 3 GAI/HA
  Herbicidal efficacy SZ 2WAA: 100
  Herbicidal efficacy SZ 4WAA: 100
  Herbicidal efficacy SZ 6WAA: 100
[3]; Trial 2, 4 GAI/HA
  Herbicidal efficacy SZ 2WAA: 99
  Herbicidal efficacy SZ 4WAA: 99
  Herbicidal efficacy SZ 6WAA: 100
[3]; Trial 2, 6 GAI/HA
  Herbicidal efficacy SZ 2WAA: 100
  Herbicidal efficacy SZ 4WAA: 100
  Herbicidal efficacy SZ 6WAA: 100
[4]; applied 7 DAS, 3 GAI/HA
  PHYTOTOXICITY: 1.67
[4]; applied 7 DAS, 6 GAI/HA
  PHYTOTOXICITY: 1.33
[4]; applied 14 DAS, 3 GAI/HA
  PHYTOTOXICITY: 1.0
[4]; applied 14 DAS, 6 GAI/HA
  PHYTOTOXICITY: 1.0
[4]; applied 21 DAS, 3 GAI/HA
  PHYTOTOXICITY: 0
[4]; applied 21 DAS, 6 GAI/HA
  PHYTOTOXICITY: 0
[4]; applied 28 DAS, 3 GAI/HA
  PHYTOTOXICITY: 0
[4]; applied 28 DAS, 6 GAI/HA
  PHYTOTOXICITY: 0
[5]; applied 7 DAS, 3 GAI/HA
  PHYTOTOXICITY: 1.67
[5]; applied 7 DAS, 6 GAI/HA
  PHYTOTOXICITY: 1.67
[5]; applied 14 DAS, 3 GAI/HA
  PHYTOTOXICITY: 1.0
[5]; applied 14 DAS, 6 GAI/HA
  PHYTOTOXICITY: 1.0
[5]; applied 21 DAS, 3 GAI/HA
  PHYTOTOXICITY: 0.67
[5]; applied 21 DAS, 6 GAI/HA
  PHYTOTOXICITY: 1.0
[5]; applied 28 DAS, 3 GAI/HA
  PHYTOTOXICITY: 0
[5]; applied 28 DAS, 6 GAI/HA
  PHYTOTOXICITY: 0
[6]; 3 WAT, 2 GAI/HA, evaluation 1
  % CONTROL RICE: 0%
[6]; 3 WAT, 2 GAI/HA, evaluation 2
  % CONTROL RICE: 0%
[6]; 3 WAT, 2 GAI/HA, evaluation 3
  % CONTROL RICE: 0%
[6]; 3 WAT, 3 GAI/HA, evaluation 1
  % CONTROL RICE: 0%
[6]; 3 WAT, 3 GAI/HA, evaluation 2
  % CONTROL RICE: 0%
[6]; 3 WAT, 3 GAI/HA, evaluation 3
  % CONTROL RICE: 0%
[6]; 3 WAT, 4 GAI/HA, evaluation 1
  % CONTROL RICE: 0%
[6]; 3 WAT, 4 GAI/HA, evaluation 2
  % CONTROL RICE: 0%
[6]; 3 WAT, 4 GAI/HA, evaluation 3
  % CONTROL RICE: 0%
[6]; 3 WAT, 6 GAI/HA, evaluation 1
  % CONTROL RICE: 0%
[6]; 3 WAT, 6 GAI/HA, evaluation 2
  % CONTROL RICE: 0%
[6]; 3 WAT, 6 GAI/HA, evaluation 3
  % CONTROL RICE: 0%
[6]; 3 WAT, 8 GAI/HA, evaluation 1
  % CONTROL RICE: 0%
[6]; 3 WAT, 8 GAI/HA, evaluation 2
  % CONTROL RICE: 0%
[6]; 3 WAT, 8 GAI/HA, evaluation 3
  % CONTROL RICE: 0%
[6]; 4 WAT, 2 GAI/HA, evaluation 1
  % CONTROL RICE: 0%
[6]; 4 WAT, 2 GAI/HA, evaluation 2
  % CONTROL RICE: 0%
[6]; 4 WAT, 2 GAI/HA, evaluation 3
  % CONTROL RICE: 0%
[6]; 4 WAT, 3 GAI/HA, evaluation 1
  % CONTROL RICE: 0%
[6]; 4 WAT, 3 GAI/HA, evaluation 2
  % CONTROL RICE: 10%
[6]; 4 WAT, 3 GAI/HA, evaluation 3
  % CONTROL RICE: 0%
[6]; 4 WAT, 4 GAI/HA, evaluation 1
  % CONTROL RICE: 20%
[6]; 4 WAT, 4 GAI/HA, evaluation 2
  % CONTROL RICE: 20%
[6]; 4 WAT, 4 GAI/HA, evaluation 3
  % CONTROL RICE: 0%
[6]; 4 WAT, 6 GAI/HA, evaluation 1
  % CONTROL RICE: 20%
[6]; 4 WAT, 6 GAI/HA, evaluation 2
  % CONTROL RICE: 20%
[6]; 4 WAT, 6 GAI/HA, evaluation 3
  % CONTROL RICE: 0%
[6]; 4 WAT, 8 GAI/HA, evaluation 1
  % CONTROL RICE: 20%
[6]; 4 WAT, 8 GAI/HA, evaluation 2
  % CONTROL RICE: 20%
[6]; 4 WAT, 8 GAI/HA, evaluation 3
  % CONTROL RICE: 0%
[6]; 5 WAT, 2 GAI/HA, evaluation 1
  % CONTROL RICE: 10%
[6]; 5 WAT, 2 GAI/HA, evaluation 2
  % CONTROL RICE: 0%
[6]; 5 WAT, 2 GAI/HA, evaluation 3
  % CONTROL RICE: 0%
[6]; 5 WAT, 3 GAI/HA, evaluation 1
  % CONTROL RICE: 10%
[6]; 5 WAT, 3 GAI/HA, evaluation 2
  % CONTROL RICE: 0%
[6]; 5 WAT, 3 GAI/HA, evaluation 3
  % CONTROL RICE: 0%
[6]; 5 WAT, 4 GAI/HA, evaluation 1
  % CONTROL RICE: 30%
[6]; 5 WAT, 4 GAI/HA, evaluation 2
  % CONTROL RICE: 0%
[6]; 5 WAT, 4 GAI/HA, evaluation 3
  % CONTROL RICE: 0%
[6]; 5 WAT, 6 GAI/HA, evaluation 1
  % CONTROL RICE: 0%
[6]; 5 WAT, 6 GAI/HA, evaluation 2
  % CONTROL RICE: 0%
[6]; 5 WAT, 6 GAI/HA, evaluation 3
  % CONTROL RICE: 0%
[6]; 5 WAT, 8 GAI/HA, evaluation 1
  % CONTROL RICE: 30%
[6]; 5 WAT, 8 GAI/HA, evaluation 2
  % CONTROL RICE: 10%
[6]; 5 WAT, 8 GAI/HA, evaluation 3
  % CONTROL RICE: 0%
[7]; 3 GAI/HA, 1 WAA
  CROP TOLERANCE: 0
[7]; 3 GAI/HA, 2WAA
  CROP TOLERANCE: 0
[7]; 3 GAI/HA, 4WAA
  CROP TOLERANCE: 0
[7]; 3 GAI/HA, 6WAA
  CROP TOLERANCE: 0
[7]; 4 GAI/HA, 1 WAA
  CROP TOLERANCE: 0
[7]; 4 GAI/HA, 2WAA
  CROP TOLERANCE: 0
[7]; 4 GAI/HA, 4WAA
  CROP TOLERANCE: 0
[7]; 4 GAI/HA, 6WAA
  CROP TOLERANCE: 0
[7]; 6 GAI/HA, 1 WAA
  CROP TOLERANCE: 1
[7]; 6 GAI/HA, 2WAA
  CROP TOLERANCE: 0
[7]; 6 GAI/HA, 4WAA
  CROP TOLERANCE: 0
[7]; 6 GAI/HA, 6WAA
  CROP TOLERANCE: 0
[7]; 8 GAI/HA, 1 WAA
  CROP TOLERANCE: 1
[7]; 8 GAI/HA, 2WAA
  CROP TOLERANCE: 1
[7]; 8 GAI/HA, 4WAA
  CROP TOLERANCE: 0
[7]; 8 GAI/HA, 6WAA
  CROP TOLERANCE: 0
[8]
  % CONTROL OR INJURY CD: 100%
[9]
  % CONTROL OR INJURY LL: 87%
[10]
  % CONTROL OR INJURY MC: 100%
[11]
  % CONTROL OR INJURY SZ: 100%
[12]
  % CONTROL OR INJURY RICE: 16.6%
[13]
  CROP TOLERANCE DW (Dry weight relative to untreated check): 92%
  CROP TOLERANCE PH (Plant height relative to untreated check): 99%
  CROP TOLERANCE VA (Visual crop injury): 0.5%
[14]; rate 1 g ai/ha
  % CONTROL OR INJURY AT: 80%
  % CONTROL OR INJURY AP: 0%
  % CONTROL OR INJURY CD: 60%
  % CONTROL OR INJURY SR: 90%
[14]; rate 2 g ai/ha
  % CONTROL OR INJURY AT: 95%
  % CONTROL OR INJURY AP: 0%
  % CONTROL OR INJURY CD: 60%
  % CONTROL OR INJURY SR: 95%
[14]; rate 4 g ai/ha
  % CONTROL OR INJURY AT: 95%
  % CONTROL OR INJURY AP: 60%
  % CONTROL OR INJURY CD: 80%
  % CONTROL OR INJURY SR: 95%
[14]; rate 8 g ai/ha
  % CONTROL OR INJURY AT: 95%
  % CONTROL OR INJURY AP: 70%
  % CONTROL OR INJURY CD: 100%
  % CONTROL OR INJURY SR: 95%
